This passage reports T/C results from PubChem BioAssay AID248 (DTP/NCI, 2004).

“And” between values parts separate entries of the source, which are not always exact repeats. Identical values can stand only once. Toxic doses and inconclusive results are not listed.

The assay concerns L1210 leukemia ip in BDF1 mice, survival T/C. The assay is described as follows: NCI In Vivo Anticancer Drug Screen. Data for tumor model L1210 Leukemia (intraperitoneal) in B6D2F1 (BDF1) mice. The following applies: endpoint: mean survival time, higher = longer survival. The method, boiled down: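 Tumor was transplanted into mice, which were then dosed with test compound or vehicle alone. Survival was recorded for each group, and the treated figure was expressed relative to the control figure.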

Setting [1] is: dose: 100.0 mg/kg/injection, schedule: Q04DX003 (ip), vehicle: Klucel (hydroxypropylcellulose) (HPC).
Where [2] appears, read: dose: 100.0 mg/kg/injection, schedule: Q04DX002 (ip), vehicle: saline with Tween-80.
Setting [3] is: dose: 200.0 mg/kg/injection, schedule: Q04DX002 (ip), vehicle: saline with Tween-80.
Setting [4] is: dose: 400.0 mg/kg/injection, schedule: Q04DX002 (ip), vehicle: saline with Tween-80.
Setting [5] is: dose: 100.0 mg/kg/injection, schedule: Q01DX001 (ip), vehicle: carboxymethylcellulose (CMC).
Setting [6] is: dose: 200.0 mg/kg/injection, schedule: Q01DX001 (ip), vehicle: carboxymethylcellulose (CMC).
The mark [7] stands for this setting: dose: 400.0 mg/kg/injection, schedule: Q01DX009 (ip), vehicle: saline with Tween-80.
Setting [8] is: dose: 100.0 mg/kg/injection, schedule: Q01DX001 (ip), vehicle: saline.

For `Clc1cc(Cl)c(/C=C/c2c(Cl)cc(Cl)cc2Cl)c(Cl)c1`, the T/C runs as follows: under setting [1], 98 % of control; (dose: 200.0 mg/kg/injection, schedule: Q04DX003 (ip), vehicle: Klucel (hydroxypropylcellulose) (HPC)) 93 % of control; (dose: 400.0 mg/kg/injection, schedule: Q04DX003 (ip), vehicle: Klucel (hydroxypropylcellulose) (HPC)) 95 % of control.

As for `N#Cc1ccc(/C=N\NC(=O)CCCC(=O)N/N=C/c2ccc(C#N)cc2)cc1`, the T/C (dose: 50.0 mg/kg/injection, schedule: Q01DX001 (ip), vehicle: other) was 91 % of control; the T/C (dose: 100.0 mg/kg/injection, schedule: Q01DX001 (ip), vehicle: other) is 91 % of control; the T/C (dose: 400.0 mg/kg/injection, schedule: Q01DX001 (ip), vehicle: other) was 91 % of control.

As for `O=C(CCl)Nc1ccc([As](=O)(O)O)cc1`, the T/C is, setting by setting: (dose: 25.0 mg/kg/injection, schedule: Q01DX009 (ip), vehicle: Klucel (hydroxypropylcellulose) (HPC)) 98 % of control; (dose: 50.0 mg/kg/injection, schedule: Q01DX009 (ip), vehicle: Klucel (hydroxypropylcellulose) (HPC)) 91 % of control; (dose: 50.0 mg/kg/injection, schedule: Q04DX003 (ip), vehicle: Klucel (hydroxypropylcellulose) (HPC)) 94 % of control; under setting [1], 97 % of control.

With `C=C(C)C1CCC2=CCCC(C)C2(C)C1` (stereo not given), the T/C was 98 % of control (dose: 100.0 mg/kg/injection, schedule: Q04DX003 (ip), vehicle: acetone) and 96 % of control (dose: 200.0 mg/kg/injection, schedule: Q04DX003 (ip), vehicle: acetone).

Take `NC(=O)c1c(/N=C/c2ccccc2Cl)sc2c1CCCC2`: the T/C was 91 % of control under setting [2], 87 % of control under setting [3] and 91 % of control under setting [4].

Regarding `CC(=O)Nc1cccc(C[P+](c2ccccc2)(c2ccccc2)c2ccccc2)c1`, the T/C (dose: 5.0 mg/kg/injection, schedule: Q01DX001 (ip), vehicle: carboxymethylcellulose (CMC)) was 95 % of control; the T/C (dose: 10.0 mg/kg/injection, schedule: Q01DX001 (ip), vehicle: carboxymethylcellulose (CMC)) is 98 % of control; the T/C (dose: 20.0 mg/kg/injection, schedule: Q01DX001 (ip), vehicle: carboxymethylcellulose (CMC)) was 95 % of control; the T/C (dose: 40.0 mg/kg/injection, schedule: Q01DX001 (ip), vehicle: carboxymethylcellulose (CMC)) was 95 % of control; the T/C (dose: 80.0 mg/kg/injection, schedule: Q01DX001 (ip), vehicle: carboxymethylcellulose (CMC)) was 93 % of control; the T/C under setting [5] was 97 % of control. Further, the T/C under setting [6] is 90 % of control.

On to `S=C(Nc1ccccc1)N(C1CCCCC1)C1CCCCC1`, for which the T/C under setting [7] is 158 % of control.

As for `COc1cc2c(cc1NC(=O)C(F)(F)F)-c1ccc(NC(=O)C(F)(F)F)cc1C2`, the T/C (dose: 75.0 mg/kg/injection, schedule: Q01DX001 (ip), vehicle: carboxymethylcellulose (CMC)) is 88 % of control; the T/C (dose: 150.0 mg/kg/injection, schedule: Q01DX001 (ip), vehicle: carboxymethylcellulose (CMC)) is 98 % of control; the T/C (dose: 300.0 mg/kg/injection, schedule: Q01DX001 (ip), vehicle: carboxymethylcellulose (CMC)) was 90 % of control.

Consider `CCN1CCCC(Nc2cc(C)nc(Nc3nc4cc(Cl)c(Cl)cc4[nH]3)n2)C1` (stereo not given), for which the T/C runs as follows: (dose: 25.0 mg/kg/injection, schedule: Q01DX009 (ip), vehicle: saline with Tween-80) 94 % of control; under setting [8], 98 % of control.

As for `O=C1NC(=S)S/C1=C\c1ccncc1`, the T/C runs as follows: (dose: 50.0 mg/kg/injection, schedule: Q01DX001 (ip), vehicle: carboxymethylcellulose (CMC)) 94 % of control; under setting [5], 89 % of control; under setting [6], 92 % of control; (dose: 400.0 mg/kg/injection, schedule: Q01DX001 (ip), vehicle: carboxymethylcellulose (CMC)) 99 % of control.

Consider `COC(=O)c1ccccc1NC(=O)c1cc(C(=O)O)c(C(=O)Nc2ccccc2C(=O)OC)cc1C(=O)O`, for which the T/C is 93 % of control and 107 % of control (dose: 100.0 mg/kg/injection, schedule: Q01DX009 (ip), vehicle: saline with Tween-80); 100 % of control and 103 % of control under setting [2]; 102 % of control (dose: 100.0 mg/kg/injection, schedule: Q04DX003 (ip), vehicle: saline with Tween-80); 97 % of control and 113 % of control (dose: 200.0 mg/kg/injection, schedule: Q01DX009 (ip), vehicle: saline with Tween-80); 106 % of control and 109 % of control under setting [3]; 100 % of control (dose: 200.0 mg/kg/injection, schedule: Q04DX003 (ip), vehicle: saline with Tween-80). For the same molecule, the T/C is 97 % of control and 92 % of control under setting [7]; 96 % of control and 92 % of control under setting [4]; 102 % of control (dose: 400.0 mg/kg/injection, schedule: Q04DX003 (ip), vehicle: saline with Tween-80).

As to `COc1cccc(C(N)C(=O)O)c1` (stereo not given), the T/C runs as follows: (dose: 50.0 mg/kg/injection, schedule: Q01DX001 (ip), vehicle: saline) 94 % of control; under setting [8], 100 % of control; (dose: 200.0 mg/kg/injection, schedule: Q01DX001 (ip), vehicle: saline) 105 % of control; (dose: 400.0 mg/kg/injection, schedule: Q01DX001 (ip), vehicle: saline) 97 % of control.
